Measurements published in patent US20190185567A1, “COMBINATIONS FOR THE TREATMENT OF CANCER” (IGNYTA, INC., priority 2016, published 2019).

Assays:
[1] = system: 4T1-Luc2-1A4 cells; experiment: 4T1-Luc2-1A4 mammary fat pad tumor model: tumor burden by caliper and BLI, metastases; type: in vivo, Balb/c mice; conditions: once daily for 15 days (Days 3-17); for Day 14 T/C (whole body BLI) / Day 14 median T/C (caliper measurements): p>0.05
Procedure: Female Envigo Balb/c mice (BALB/cAnNHsd) were used in this study. They were 6-7 weeks old on day 1 of the experiment. The animals were fed irradiated Harlan 2918.15 Rodent Diet and water ad libitum. Animals were housed in static cages with Bed-O'Cobs™ bedding inside Biobubble® Clean Rooms that provide H.E.P.A filtered air into the bubble environment at 100 complete air changes per hour. All treatments, imaging, body weight determinations, and tumor measurements were carried out in the bubble environment. The environment was controlled to a temperature range of 70°±2° F. and a humidity range of 30-70%.
4T1-Luc2-1A4 cells were obtained from PerkinElmer. They were grown in RPMI 1640 medium which was modified with 1% 100 mM Na pyruvate, 1% 1M HEPES buffer, 2.5 g/L glucose solution and supplemented with 10% non-heat-inactivated Fetal Bovine Serum (FBS) and 1% 100X Penicillin/Streptomycin/L-Glutamine (PSG). The growth environment was maintained in an incubator with a 5% CO2 atmosphere at 37° C. When expansion was complete, the cells (passage 5) were trypsinized using 0.25% trypsin-EDTA solution. Following cell detachment, the trypsin was inactivated by dilution with complete growth medium and any clumps of cells were separated by pipetting. The cells were centrifuged at 200 rcf for 8 minutes at 8° C., the supernatant was aspirated, and the pellet was re-suspended in cold Dulbecco's Phosphate Buffered Saline (DPBS) by pipetting. An aliquot of the homogeneous cell suspension was diluted in a trypan blue solution and counted using a Luna automated cell counter. The pre-implantation cell viability was 95%. The cell suspension was centrifuged at 200 rcf for 8 minutes at 8° C. The supernatant was aspirated and the cell pellet was re-suspended in cold 50% serum-free medium 50% Matrigel® to generate a final concentration of 1.0E+07 trypan-excluding cells/mL. The cell suspension was maintained on wet ice during implantation. Following implantation, an aliquot of the remaining cells was diluted with a trypan blue solution and counted to determine the post-implantation cell viability (95%).
Test animals were implanted subcutaneously into the mammary fat pad (MFP#4) on Day 0 with 5.0E+05 cells in 50 μL of serum free media in 50% Matrigel® using a 27-gauge needle and 1 mL syringe.
All mice were sorted into study groups based on body weight. The mice were distributed to ensure that the mean body weight for all groups was within 10% of the overall mean for the study population (group range 16.8-17.2 g). Treatment began on Day 3, prior to the tumors being palpable. All mice were dosed 0.2 mL/20 g. • Group 1: Vehicle Control (50% PEG400; 50% oleic acid) PO, once daily for 15 days (Days 3-17); • Group 2: N-[4-[(6,7-dimethoxy-4-quinolinyl)oxy]-3-fluorophenyl]-3-(4-fluorophenyl)-1,2,3,4-tetrahydro-1-(1-methylethyl)-2,4-dioxo-5-pyrimidinecarboxamide, 30 mg/kg PO, once daily for 15 days (Days 3-17); • Group 3: N-[4-[(6,7-dimethoxy-4-quinolinyl)oxy]-3-fluorophenyl]-3-(4-fluorophenyl)-1,2,3,4-tetrahydro-1-(1-methylethyl)-2,4-dioxo-5-pyrimidinecarboxamide, 10 mg/kg PO, once daily for 15 days (Days 3-17); • Group 4: N-[4-[(6,7-dimethoxy-4-quinolinyl)oxy]-3-fluorophenyl]-3-(4-fluorophenyl)-1,2,3,4-tetrahydro-1-(1-methylethyl)-2,4-dioxo-5-pyrimidinecarboxamide, 1 mg/kg PO, once daily for 15 days (Days 3-17); • Group 5: anti-CTLA-4 clone 9D9 antibody, 10 mg/kg IP, every third day for 2 treatments, then a 3 day rest for 2.5 weeks (Days 3, 6, 10, 13, 17) • Group 6: anti-CTLA-4 clone 9D9 antibody, 10 mg/kg IP, every third day for 2 treatments, then a 3 day rest for 2.5 weeks (Days 3, 6, 10, 13, 17), plus N-[4-[(6,7-dimethoxy-4-quinolinyl)oxy]-3-fluorophenyl]-3-(4-fluorophenyl)-1,2,3,4-tetrahydro-1-(1-methylethyl)-2,4-dioxo-5-pyrimidinecarboxamide, 30 mg/kg PO, once daily for 15 days (Days 3-17). […]

[2] = system: hematopoietic cell subsets; experiment: Hematopoietic cell subset mean percentages in tumor and spleen, subjective comparison to the Control Group; type: in vivo, Balb/c mice; conditions: once daily (Days 3-17); for CD45+ cells that expressed PD-L1, increase vs Control Group: spleen
[3] = Assessment of side effects (tolerability, mortality, body weight); type: in vivo; conditions: once daily for 15 days (Days 3-17); for mean body weight loss: highest at study termination
Procedure: Animals were weighed on each day of treatment. Individual body weights were recorded three times weekly.
In this report, a dosage level is described as tolerated if treatment-related weight loss (during and two weeks after treatment) is <20% and mortality during this period in the absence of potentially lethal tumor burdens is <10%.
Upon death or euthanasia, all animals were necropsied to provide a general assessment of potential cause of death and perhaps target organs for toxicity. The presence or absence of metastases was also noted.

What does the source list for `COc1cc2nccc(Oc3ccc(NC(=O)c4cn(C(C)C)c(=O)n(-c5ccc(F)cc5)c4=O)cc3F)c2cc1OC` [N-[4-[(6,7-dimethoxy-4-quinolinyl)oxy]-3-fluorophenyl]-3-(4-fluorophenyl)-1,2,3,4-tetrahydro-1-(1-methylethyl)-2,4-dioxo-5-pyrimidinecarboxamide]?
incidence of ex vivo lung metastases ([1]; 1 mg/kg PO): 100%; tumor free survivors ([1]; 1 mg/kg PO): 0%; incidence of axillary lymph node metastases based on in vivo imaging ([1]; 1 mg/kg PO, 8/14): 57%; Day 14 T/C (whole body BLI) ([1]; 1 mg/kg PO): 139%; Day 14 median T/C (caliper measurements) ([1]; 1 mg/kg PO): 131%; incidence of ex vivo lung metastases ([1]; 10 mg/kg PO): 100%; tumor free survivors ([1]; 10 mg/kg PO): 0%; incidence of axillary lymph node metastases based on in vivo imaging ([1]; 10 mg/kg PO, 2/14): 14%; Day 14 T/C (whole body BLI) ([1]; 10 mg/kg PO): 133%; Day 14 median T/C (caliper measurements) ([1]; 10 mg/kg PO): 100%; incidence of ex vivo lung metastases ([1]; 30 mg/kg PO): 100%; tumor free survivors ([1]; 30 mg/kg PO): no tumor free survivors; incidence of axillary lymph node metastases based on in vivo imaging ([1]; 30 mg/kg PO, 3/14): 21%; Day 14 T/C (whole body BLI) ([1]; 30 mg/kg PO): 54%; Day 14 median T/C (caliper measurements) ([1]; 30 mg/kg PO): 55%; NK cells that produced IFN-γ upon ex-vivo re-stimulation, increase vs Control Group ([2]; NK cells isolated from spleens, 30 mg/kg PO): 22%; NK cells that produced IFN-γ upon ex-vivo re-stimulation, increase vs Control Group ([2]; NK cells isolated from tumors, 30 mg/kg PO): 75%; CD45+ cells that expressed PD-L1, increase vs Control Group ([2]; 10 mg/kg PO): 8%; CD45+ cells that expressed PD-L1, increase vs Control Group ([2]; 30 mg/kg PO): 16%; CD45+ cells expressing PD-L1, reduction vs Control Group ([2]; tumor, 1 mg/kg PO): 14%; CD4+ T subset as a percent of total T cells, reduction vs Control Group ([2]; tumor, 10 mg/kg PO): 51%; CD45+ cells expressing PD-L1, reduction vs Control Group ([2]; tumor, 10 mg/kg PO): 5%; Treg subset as a percent of total T cells, reduction vs Control Group ([2]; tumor, 10 mg/kg PO): 61%; Tumor-derived cells that expressed CD45, increase vs Control Group ([2]; tumor, 10 mg/kg PO): 18%; CD4+ T subset as a percent of total T cells, reduction vs Control Group ([2]; tumor, 30 mg/kg PO): 54%; G-MDSC subset, reduction vs Control Group ([2]; tumor, 30 mg/kg PO): 18%; M2 MAC subset, increase vs Control Group ([2]; tumor, 30 mg/kg PO): 72%; Treg subset as a percent of total T cells, reduction vs Control Group ([2]; tumor, 30 mg/kg PO): 69%; Tumor-derived cells that expressed CD45, increase vs Control Group ([2]; tumor, 30 mg/kg PO): 14%; tolerability ([3]; 1 mg/kg PO): well-tolerated; treatment-related mortality ([3]; 1 mg/kg PO): no treatment-related mortality; mean body weight loss ([3]; 1 mg/kg PO): 2.1%; tolerability ([3]; 10 mg/kg PO): well-tolerated; treatment-related mortality ([3]; 10 mg/kg PO): no treatment-related mortality; mean body weight loss ([3]; 10 mg/kg PO): 4.2%; body weight change ([3]; 30 mg/kg PO): body weight gain; tolerability ([3]; 30 mg/kg PO): well-tolerated; treatment-related mortality ([3]; 30 mg/kg PO): no treatment-related mortality
